Experimental findings from ChEMBL document CHEMBL1133521, “Multiple-conformation and protonation-state representation in 4D-QSAR: the neurokinin-1 receptor system” (J Med Chem, 2000) are described below.

Each structure is given as a SMILES string.

The test deals with Substance-P receptor (Homo sapiens, UniProt P25103). Briefly: Inhibitory activity against Tachykinin receptor 1.
Substance-P receptor, sequence (P25103 whole entry): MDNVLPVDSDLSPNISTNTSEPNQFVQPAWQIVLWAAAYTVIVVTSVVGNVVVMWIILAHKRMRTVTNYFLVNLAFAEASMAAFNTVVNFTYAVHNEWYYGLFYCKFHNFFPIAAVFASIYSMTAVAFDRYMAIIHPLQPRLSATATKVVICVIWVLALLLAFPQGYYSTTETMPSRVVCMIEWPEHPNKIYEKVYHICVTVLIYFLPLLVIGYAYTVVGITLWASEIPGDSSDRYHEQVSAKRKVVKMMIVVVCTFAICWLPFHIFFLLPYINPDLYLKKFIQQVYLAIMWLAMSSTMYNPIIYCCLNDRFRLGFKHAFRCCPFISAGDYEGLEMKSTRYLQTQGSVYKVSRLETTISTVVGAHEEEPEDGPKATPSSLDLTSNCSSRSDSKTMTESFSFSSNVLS
Take `CN(CC(c1cccc2c1OCO2)N1CCC(N2CCCCC2)CC1)C(=O)Cc1ccccc1Cl` (stereo unspecified): half-maximal inhibition (IC50) required 12 nM.
`O=C(Cc1cc(C(F)(F)F)cc(C(F)(F)F)c1)NCC(c1cccc2c1OCO2)N1CCN(C2CCCCC2)CC1` (stereo unspecified): the IC50 is 1.6 nM.
Consider `CN(CC(c1ccc(F)c(F)c1F)N1CCC(N2CCCCC2)CC1)C(=O)Cc1cc(C(F)(F)F)cc(C(F)(F)F)c1` (stereo unspecified), for which the concentration for half-maximal inhibition (IC50) stood at 1.8 nM.
In turn, `O=C(Cc1cc(C(F)(F)F)cc(C(F)(F)F)c1)NCC(c1ccc(F)c(F)c1)N1CCC(N2CCCCC2)CC1` (stereo unspecified) gave an IC50 of 3.3 nM.
Consider `COc1ccc(C(CNC(=O)Cc2cc(C(F)(F)F)cc(C(F)(F)F)c2)N2CCC(N3CCCCC3)CC2)c(OC)c1OC` (stereo unspecified), for which it took 210 nM to reach half-maximal inhibition (IC50). This IC50 lies about 64-fold higher than the previous one.
In turn, `COc1ccccc1C(CNC(=O)Cc1cc(C(F)(F)F)cc(C(F)(F)F)c1)N1CCC(O)(c2ccccc2)CC1` (stereo unspecified) came in with an IC50 of 130 nM. Compared with the last compound, the IC50 is about 1.6-fold lower.
In the case of `COc1ccccc1C(CNC(=O)Cc1ccccc1C(F)(F)F)N1CCN(C2CCCCC2)CC1` (stereo unspecified) it was 270 nM.
In the case of `O=C(Cc1cc(C(F)(F)F)cc(C(F)(F)F)c1)NCC(c1cccc(F)c1)N1CCC(N2CCCCC2)CC1` (stereo unspecified) it was 4.6 nM.
As to `COc1cccc(C(CNC(=O)Cc2cc(C(F)(F)F)cc(C(F)(F)F)c2)N2CCC(N3CCCCC3)CC2)c1` (stereo unspecified), half-maximal inhibition (IC50) required 1.5 nM.
Compound `COc1ccccc1C(CNC(=O)Cc1cccc(OC(C)C)c1)N1CCN(C2CCCCC2)CC1` (stereo unspecified) yielded an IC50 of 130 nM.
With `CN(CC(c1ccccc1Br)N1CCC(N2CCCCC2)CC1)C(=O)Cc1cc(C(F)(F)F)cc(C(F)(F)F)c1` (stereo unspecified), inhibition was half-maximal at 1.1 nM (IC50).
`COc1ccccc1C(CNC(=O)Cc1cc(C)cc(C)c1)N1CCN(C2CCCCC2)CC1` (stereo unspecified) registered an IC50 of 15 nM.
Compound `COc1ccccc1C(CNC(=O)Cc1cc(C)cc(C)c1)N1CCC(N2CCCCC2)CC1` (stereo unspecified) displayed an IC50 of 61 nM.
`O=C(Cc1cc(C(F)(F)F)cc(C(F)(F)F)c1)NCC(c1cccc2ccccc12)N1CCN(C2CCCCC2)CC1` (stereo unspecified): the IC50 amounted to 2.8 nM.
`COc1cc(C(=O)N(C)CC(c2cccc3c2OCO3)N2CCC(N3CCCCC3)CC2)cc(OC)c1OC` (stereo unspecified) displayed a 50% inhibitory concentration (IC50) of 37 nM.
Take `COc1ccccc1C(C1CCCCN1C(=O)Cc1cc(C(F)(F)F)cc(C(F)(F)F)c1)N1CCC(N2CCCCC2)CC1` (stereo unspecified): the IC50 stood at 4.3 nM. Against the preceding compound, the IC50 is about 8.6-fold lower.
Take `CN(CC(c1cccc2c1OCO2)N1CCC(N2CCCCC2)CC1)C(=O)C(c1ccccc1)c1ccccc1` (stereo unspecified): the IC50 stood at 22 nM. Compared with the last compound, the IC50 is about 5.1-fold higher.
`CN(CC(c1cccc(C(F)(F)F)c1F)N1CCC(N2CCCCC2)CC1)C(=O)Cc1cc(C(F)(F)F)cc(C(F)(F)F)c1` (stereo unspecified): the IC50 stood at 1.4 nM.
For the compound `CN(CC(c1ccccc1)N1CCN(C2CCCCC2)CC1)C(=O)Cc1cc(C(F)(F)F)cc(C(F)(F)F)c1` (stereo unspecified), the IC50 is 2 nM. The IC50 values of the last two compounds are within 1.5-fold of each other.
In the case of `COc1ccccc1C(CNC(=O)Cc1cc(C(F)(F)F)cc(C(F)(F)F)c1)N1CCC(N2CCCCC2)CC1` (stereo unspecified) it was 2.4 nM; in that of `O=C(Cc1cc(C(F)(F)F)cc(C(F)(F)F)c1)NCC(c1ccc(F)c(Cl)c1)N1CCC(N2CCCCC2)CC1` (stereo unspecified), 2.9 nM.
Regarding `CC(C)C1CCN(C2CCN(C(CN(C)C(=O)Cc3cc(C(F)(F)F)cc(C(F)(F)F)c3)c3ccc(Cl)c(Cl)c3)CC2)CC1` (stereo unspecified), the IC50 was determined as 15 nM.
In the case of `CN(CC(c1cc(Cl)cc(Cl)c1Cl)N1CCC(N2CCCCC2)CC1)C(=O)Cc1cc(C(F)(F)F)cc(C(F)(F)F)c1` (stereo unspecified), 3 nM corresponded to half-maximal inhibition (IC50).
With `O=C(Cc1cc(C(F)(F)F)cc(C(F)(F)F)c1)NCC(c1ccc2c(c1)OCCO2)N1CCC(N2CCCCC2)CC1` (stereo unspecified), half-maximal inhibition (IC50) was put at 140 nM.
Next, `O=C(Cc1cc(C(F)(F)F)cc(C(F)(F)F)c1)NCC(c1ccc(F)cc1Cl)N1CCC(N2CCCCC2)CC1` (stereo unspecified): 1.7 nM.
In turn, `O=C(Cc1cc(C(F)(F)F)cc(C(F)(F)F)c1)NCC(c1ccccc1Br)N1CCC(N2CCCCC2)CC1` (stereo unspecified) yielded an IC50 of 0.88 nM.
Take `O=C(Cc1cc(C(F)(F)F)cc(C(F)(F)F)c1)NCC(c1cc(Cl)cc(Cl)c1Cl)N1CCC(N2CCCCC2)CC1` (stereo unspecified): the IC50 is 6.4 nM.
Next, `COc1ccccc1C(CNC(=O)Cc1ccc(Cl)c(Cl)c1)N1CCN(C2CCCCC2)CC1` (stereo unspecified): 280 nM.
In turn, `O=C(Cc1cc(C(F)(F)F)cc(C(F)(F)F)c1)NCC(c1ccccc1)N1CCC(N2CCCCC2)CC1` (stereo unspecified) had an IC50 of 5.4 nM.
`CN(CC(c1ccc(Cl)c(Cl)c1)N1CCC(N2CCCCC2)CC1)C(=O)Cc1cc(C(F)(F)F)cc(C(F)(F)F)c1` (stereo unspecified) came in with an IC50 of 2.3 nM.
Take `CN(CC(c1cccc2c1OCO2)N1CCC(N2CCCCC2)CC1)C(=O)Cc1ccccc1Br` (stereo unspecified): the IC50 worked out at 6 nM.
In the case of `COc1cccc(C(CNC(=O)Cc2cc(C(F)(F)F)cc(C(F)(F)F)c2)N2CCC(N3CCCCC3)CC2)c1OC` (stereo unspecified) it was 7.6 nM; in that of `Cc1c(F)cccc1C(CNC(=O)Cc1cc(C(F)(F)F)cc(C(F)(F)F)c1)N1CCC(N2CCCCC2)CC1` (stereo unspecified), 3 nM.
`O=C(Cc1cc(C(F)(F)F)cc(C(F)(F)F)c1)NCC(c1ccc(Cl)c(Cl)c1)N1CCC(N(CCO)CCO)CC1` (stereo unspecified) returned an IC50 of 5.2 nM.
In the case of `COc1ccc(CC(=O)NCC(c2ccccc2OC)N2CCN(C3CCCCC3)CC2)cc1` (stereo unspecified) it was 2200 nM; in that of `CN(CC(c1ccc(F)c(Cl)c1)N1CCC(N2CCCCC2)CC1)C(=O)Cc1cc(C(F)(F)F)cc(C(F)(F)F)c1` (stereo unspecified), 1.7 nM; in that of `CN(CC(c1cccc2c1OCO2)N1CCN(C2CCCCC2)CC1)C(=O)Cc1cc(C(F)(F)F)cc(C(F)(F)F)c1` (stereo unspecified), 1.3 nM.
Take `Cc1cc(C)cc(CC(=O)N(C)CC(c2cccc3c2OCO3)N2CCC(N3CCCCC3)CC2)c1` (stereo unspecified): the IC50 stood at 2.9 nM.
`COc1ccc(OC)c(C(CNC(=O)Cc2cc(C(F)(F)F)cc(C(F)(F)F)c2)N2CCC(N3CCCCC3)CC2)c1` (stereo unspecified) had an IC50 of 110 nM. Compared with the last compound, the IC50 is about 38-fold higher.
Compound `CN(CC(c1ccc2c(c1)OCCO2)N1CCC(N2CCCCC2)CC1)C(=O)Cc1cc(C(F)(F)F)cc(C(F)(F)F)c1` (stereo unspecified) displayed an IC50 of 8.9 nM. Against the preceding compound, the IC50 is about 12-fold lower.
In the case of `O=C(Cc1cc(C(F)(F)F)cc(C(F)(F)F)c1)NCC(c1cccc(C(F)(F)F)c1F)N1CCC(N2CCCCC2)CC1` (stereo unspecified) it was 1.7 nM.
`COc1ccc(C(CN(C)C(=O)Cc2cc(C(F)(F)F)cc(C(F)(F)F)c2)N2CCC(N3CCCCC3)CC2)c(OC)c1OC` (stereo unspecified): it took 12 nM to reach half-maximal inhibition (IC50).
`O=C(Cc1cc(C(F)(F)F)cc(C(F)(F)F)c1)NCC(c1ccc(Cl)c(Cl)c1)N1CCC(N2CCCCC2)CC1` (stereo unspecified) displayed an IC50 of 0.75 nM.
`O=C(Cc1cc(C(F)(F)F)cc(C(F)(F)F)c1)NCC(Cc1ccccc1)N1CCC(N2CCCCC2)CC1` (stereo unspecified) gave an IC50 of 81 nM.
Next, `COc1ccccc1C(CNC(=O)Cc1cc(C(F)(F)F)cc(C(F)(F)F)c1)N1CCN(C2Cc3ccccc3C2)CC1` (stereo unspecified): 7.2 nM; `CC(C)N1CCN(C(CN(C)C(=O)Cc2cc(C(F)(F)F)cc(C(F)(F)F)c2)c2cccc3c2OCO3)CC1` (stereo unspecified): 1.4 nM.
The compound `CN(CC(Cc1ccccc1)N1CCC(N2CCCCC2)CC1)C(=O)Cc1cc(C(F)(F)F)cc(C(F)(F)F)c1` (stereo unspecified) returned a half-maximal inhibitory concentration (IC50) of 32 nM. Against the preceding compound, the IC50 is about 23-fold higher.
The compound `CN(CC(c1ccc(F)cc1Cl)N1CCC(N2CCCCC2)CC1)C(=O)Cc1cc(C(F)(F)F)cc(C(F)(F)F)c1` (stereo unspecified) came in with an IC50 of 1.5 nM. This IC50 lies about 21-fold lower than the previous one.
`CN(CCc1cc(C(F)(F)F)cc(C(F)(F)F)c1)C(=O)C(Cc1c[nH]c2ccccc12)N1CCN(C2CCCCC2)CC1` (stereo unspecified) returned an IC50 of 12 nM. Compared with the last compound, the IC50 is about 8-fold higher.
On to `Cc1c(F)cccc1C(CN(C)C(=O)Cc1cc(C(F)(F)F)cc(C(F)(F)F)c1)N1CCC(N2CCCCC2)CC1` (stereo unspecified), for which the IC50 turned out to be 1.4 nM.
Next, `CC(C)N1CCN(C(CNC(=O)Cc2cc(C(F)(F)F)cc(C(F)(F)F)c2)c2cccc3c2OCO3)CC1` (stereo unspecified): 6.9 nM; `COc1ccccc1C(CNC(=O)Cc1ccc(Cl)cc1)N1CCN(C2CCCCC2)CC1` (stereo unspecified): 850 nM; `CN(CC(c1cccc2c1OCO2)N1CCC(N2CCCCC2)CC1)C(=O)Cc1cc(C(F)(F)F)cc(C(F)(F)F)c1` (stereo unspecified): 1.8 nM.
In turn, `CC(C)Oc1cccc(CC(=O)NCC(c2ccc(Cl)c(Cl)c2)N2CCC(N3CCCCC3)CC2)c1` (stereo unspecified) gave an IC50 of 5 nM.
Take `O=C(Cc1cc(C(F)(F)F)cc(C(F)(F)F)c1)NCC(C(c1ccccc1)c1ccccc1)N1CCC(N2CCCCC2)CC1` (stereo unspecified): the IC50 came out at 130 nM.
Compound `COc1ccccc1CC(=O)N(C)CC(c1cccc2c1OCO2)N1CCC(N2CCCCC2)CC1` (stereo unspecified) showed an IC50 of 16 nM. Against the preceding compound, the IC50 is about 8.1-fold lower.
Compound `O=C(Cc1cc(C(F)(F)F)cc(C(F)(F)F)c1)NCC(c1cccc2ccccc12)N1CCC(N2CCCCC2)CC1` (stereo unspecified) returned an IC50 of 14 nM.
The compound `COc1cccc(C(CN(C)C(=O)Cc2cc(C(F)(F)F)cc(C(F)(F)F)c2)N2CCC(N3CCCCC3)CC2)c1OC` (stereo unspecified) displayed an IC50 of 10 nM.
In turn, `CN(CC(c1ccc2c(c1)OCO2)N1CCC(N2CCCCC2)CC1)C(=O)Cc1cc(C(F)(F)F)cc(C(F)(F)F)c1` (stereo unspecified) had an IC50 of 4.8 nM.
In the case of `O=C(Cc1cc(C(F)(F)F)cc(C(F)(F)F)c1)N1CCCCC1C(CN1CCC(N2CCCCC2)CC1)c1ccccc1` (stereo unspecified) it was 1500 nM.
For `COc1ccccc1C(CNC(=O)Cc1cc(C(F)(F)F)cc(C(F)(F)F)c1)N1CCCCC1` (stereo unspecified), the IC50 was determined as 250 nM.
